Experimental data: article PMC7504721, “Targeting the Initiator Protease of the Classical Pathway of Complement Using Fragment-Based Drug Discovery” (Molecules, 2020)

Legend:
C1r-CUB1 = biological target: T1, C1r-CUB1 (Homo sapiens, UniProt P00736); assay: SPR domain mapping, C1r-CUB1 surface; assay type: binding; settings: duplicate
T1 construct: The C1r-CUB1 construct corresponds to C1r residues 18–141; made in house; host or cells: E. coli BL21 (DE3)
T1 sequence (P00736 18-141): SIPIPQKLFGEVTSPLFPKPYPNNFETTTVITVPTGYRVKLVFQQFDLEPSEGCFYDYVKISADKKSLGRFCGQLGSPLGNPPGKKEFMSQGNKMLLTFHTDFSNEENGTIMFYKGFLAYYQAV
From the text: (§1) Figure 5 Selectivity and mechanistic analysis of CMP-1611 and CMP-1696. (A) Chemical structure of CMP-1611. (B) Chemical structure of CMP-1696. (C) Dose-dependent inhibition by CMP-1611 and CMP-1696 in a classical pathway-specific ELISA. Data were fit with GraphPad Prism using non-linear regression with a log(inhibitor) vs. response model. […] The CMP-778 inhibitory response could not be fit to a dose-response inhibition model. (D) Complement pathway selectivity of CMP-1611 and CMP-1696. Compounds were assessed for their ability to inhibit activation of complement via the lectin and alternative pathways using single doses of 500 μM compound in triplicate. To ensure only lectin pathway activation, 2% (v/v) C1q-depleted serum (CompTech) was used and mannan was used as the activator. To match serum sources and amounts for this assay, the classical pathway assays were repeated here using serum from CompTech at 2% (v/v) final concentration. Alternative pathway activation assays were performed using 20% (v/v) serum (CompTech), alternative pathway buffers, and C3b detection (see Methods and Materials for details). […] (E) C1r, C1r-CUB1, and C1r-CCP2-SP, were immobilized on an SPR sensor chip and binding responses for 500 μM CMP-1611 and CMP-1696 or 10 μM Futhan were each injected in duplicate over all surfaces. Binding responses were corrected for the molecular weight of each analyte and the immobilization level and molecular weight of each surface ligand. Measures of statistical significance in (D) were obtained by comparison of vehicle control using an unpaired t-test (* p < 0.05). To assess selectivity of CMP-1611 and CMP-1696, we performed pathway-specific ELISA-based inhibition assays. […] However, CMP-1696, but not CMP-1611, blocked lectin pathway activation at a similar level as it did the classical pathway (Figure 5D). To further investigate the divergent selectivity profiles of CMP-1611 and CMP-1696, we first sought to clarify the binding site on C1r for each compound. […] We then injected each compound simultaneously over the three surfaces at 500 μM and measured binding responses. […]

C1r-CCP2-SP = biological target: T2, C1r-CCP2-SP (Homo sapiens, UniProt P00736); assay: SPR domain mapping, C1r-CCP2-SP surface; assay type: binding; settings: duplicate
T2 sequence (P00736 374-463 limits assumed): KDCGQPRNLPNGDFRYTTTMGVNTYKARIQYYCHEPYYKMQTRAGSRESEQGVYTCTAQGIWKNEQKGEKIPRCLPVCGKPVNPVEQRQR
T2 sequence (P00736 464-705 limits assumed): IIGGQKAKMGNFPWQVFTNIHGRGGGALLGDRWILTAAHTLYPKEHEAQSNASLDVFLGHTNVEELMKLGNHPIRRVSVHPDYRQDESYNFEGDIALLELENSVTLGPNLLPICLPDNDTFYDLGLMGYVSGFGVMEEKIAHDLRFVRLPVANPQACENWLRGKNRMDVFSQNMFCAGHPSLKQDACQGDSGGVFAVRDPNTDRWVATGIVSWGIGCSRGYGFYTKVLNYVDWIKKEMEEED
From the text: as §1

SMILES	relative SPR binding response, C1r-CUB1 (C1r-CUB1; 500 µM compound)	relative SPR binding response, C1r-CCP2-SP (C1r-CCP2-SP; 500 µM compound)	relative SPR binding response, C1r-CUB1 (C1r-CUB1; 10 µM Futhan)	relative SPR binding response, C1r-CCP2-SP (C1r-CCP2-SP; 10 µM Futhan)
CN(C)c1cc(N2CCCC(N)C2)ncn1 (stereo not drawn) [CMP-1611]	bound weakly	bound weakly		
COCc1nc(-c2ccc(OC3CNC3)cc2)no1 [CMP-1696]	low binding	high binding		
N=C(N)c1ccc2cc(OC(=O)c3ccc(N=C(N)N)cc3)ccc2c1 [Futhan, reference compound]			very little binding response	bound C1r and C1r-CCP2-SP similarly
